Assay [1] deals with emesis (retching and vomiting). The experiment in a line: emesis caused by opioid (morphine) and other proemetic agents (cisplatin) in ferrets. It is filed as in vivo. Conditions: i.p. pre-dosing, morphine 0.125 mg/kg s.c. or cisplatin 5 mg/kg i.p. The method, then:
Male ferrets (0.9- 1.7 kg) obtained from Leeds University were housed in pairs at 22±1° C. and had free access to food (SDS Diet ‘C’ (E), Special Diet Services, UK) and water. They were housed under artificial lighting with lights on between 07:00 and 21:00 hours. For experimental use, animals were removed from their holding cages and placed individually into observation cages. The animals were allowed free access to water and food. The animals were divided into separate groups of 4 animals per group. Animals were frequently observed throughout the experiments by a trained technician to ensure that the animals remained in good health. In addition, animal behaviour was video recorded for subsequent analysis of emesis (see Rudd et al., 1994). Emesis was characterized by rhythmic abdominal contractions which were either associated with the oral expulsion of solid or liquid material from the gastrointestinal tract (i.e. vomiting) or not associated with the passage of material (i.e. retching movements). The number of highly distinctive abdominal contractions was counted. (+)-Nefopam was dissolved in saline and administered in a volume of 1 ml/kg. […] Observations were recorded over a 4 hr period post-morphine dosing and scored for incidences of retching and vomiting. […] Observations were recorded over the 72 hr period post-cisplatin dosing and scored for incidences of retching and vomiting.

For assay [2], the system named is opiate receptors. Conditions: cited from earlier work.
In assay [3] the test system is norepinephrine uptake. The note with it: order of potency (+)-nefopam > (±)-nefopam > (−)-nefopam; cited from earlier work.
For assay [4] the following is noted: order of potency (+)-nefopam > (±)-nefopam > (−)-nefopam; cited from earlier work.
Assay [5] relates to dopamine uptake. The note with it: order of potency (+)-nefopam > (±)-nefopam > (−)-nefopam; cited from earlier work.
Assay [6] concerns serotonin-uptake. Conditions: order of potency (+)-nefopam > (±)-nefopam > (−)-nefopam; cited from earlier work.

For the compound `CN1CCOC(c2ccccc2)c2ccccc2C1` (racemic) [nefopam], in assay [1], the “effect on emesis caused by opioid and other recognised proemetic agents” value is “able to prevent or diminish emesis”. In addition, in assay [2] (animal models of pain and humans), the “antinociception in animal models of pain and in humans” value is recorded as “induce antinociception”. Besides, the “blockade of antinociception by nalaxone” value in assay [2] (nalaxone) was “not blocked”.

Consider `CN1CCO[C@@H](c2ccccc2)c2ccccc2C1` [(+)-nefopam], for which the “norepinephrine uptake inhibitory properties, potency compared with (−)-nefopam” value in assay [3] was “more potent”. Moreover, the “analgesic properties, potency compared with (−)-nefopam” value in assay [4] was “more potent”. Further, the “dopamine uptake inhibitory properties, potency compared with (−)-nefopam” value in assay [5] is “more potent”. Further, in assay [6], the “serotonin-uptake inhibitory properties, potency compared with (−)-nefopam” value is reported as “more potent”.
